From a melting point compilation (Tetko et al.; mined from patent text by program, amines drawn as free bases though some values may be those of a salt)

| melting point [°C] | Structure (SMILES) |
| --- | --- |
| 202 to 203 | CN1CCN(S(=O)(=O)c2ccc([C@@H](CC3CCCC3)C(=O)O)cc2)CC1 |
| 34 to 38 | C[Si](C)(C)OCCCc1c[nH]c2ccccc12 |
| 168 to 171 | COc1ccc(-n2nc(Sc3ccc(Cl)c(Cl)c3)c(C)c(C#N)c2=O)cc1 |
| 242 to 244 | CC1(C)CC(=O)C2=C(C1)NC1=C(C(=O)CC(C)(C)C1)C2c1ccc(Cl)c(Oc2ccncc2)c1 |
| 166 to 167 | CC(=O)c1c(C)[nH]c(C(C)C)c1C |
| 219 to 220 | CS(=O)(=O)Nc1ccc(-c2cn3cccnc3n2)cc1Sc1ccc(F)cc1F |
| 65 to 68 | CCCN(CCC)C(=O)c1cc(C(=O)N[C@@H](Cc2cc(F)cc(F)c2)[C@H](O)CNCc2cc(CN(C)C)ccn2)cc(-c2ncco2)c1 |
| 173 | Nc1c(F)cc(Cl)c2nc(Cl)sc12 |
| 221 | O=C1CCC(c2ccccc2)(c2ccccc2)[C@@H]2CN(C(=S)Cc3ccccc3)C[C@H]12 (racemic) |
| 108 to 110 | COc1ccc(OC(C(=O)O)c2ccccc2)cc1 (stereo not given) |
| 147 to 148 | COc1ccc(C(C)(c2ccc(OC)cc2)c2ccc(N(c3ccc(C)cc3)c3ccc(C)cc3)cc2)cc1 |
| 84 to 92 | CC(C)(NC(=O)OCc1ccccc1)C(=O)NCCCc1ccccc1 |
| 305 to 307 | COc1cc(OC)c2ncn(/C=C/C(=O)O)c(=O)c2c1 |
| > 250 | CC(C)(C)OC(=O)c1ccc(C#Cc2cnc3nc(NC(=O)C(C)(C)C)nc(O)c3c2)cc1 |
| 201 to 202 | OCc1cc(O)cc(Nc2c3ccccc3nc3ccccc23)c1 |
| 185 to 186 | CN(C)C=Nc1nc2c(s1)C(=O)C(=CN(C)C)CC2 |
| 189 to 191 | CCCCSc1ccc(-c2cc3ccccc3[nH]2)cc1 |
| > 320 | CC(=O)c1c[nH]c2cn[nH]c2c1=O |
| 176 | CCOC(=O)[C@](CC(=O)OC1CC(C)CCC1C(C)C)(NC(=O)OC(C)(C)C)C(N)=O (stereo not given in full) |
| 209 to 211 | O=C(Nc1cc(OC2CCCC2)c(Cl)cc1F)C1=C(C(=O)NC2CCCCC2)CCCC1 |
| 114 to 117 | COC(=O)c1cc(-c2ccc(OC)c(F)c2)nn(CC2CC2)c1=O |
| 234 to 235 | NC(=O)c1ccc(N2CCN(Cc3cn4cc(Cl)cc(Cl)c4n3)CC2)cc1 |
| 51 to 62 | COc1cc2ccc(CC(=O)Cl)cc2cc1OC |
| 146 to 148 | CCOC(=O)C(=O)Nc1cccc(OCCO)c1C(N)=O |

| melting point [°C] | Structure (SMILES) |
| --- | --- |
| 43 to 44 | CCc1cc(CC)n2nccc2n1 |
| 118 to 119 | CCOC(=O)c1ccc(-c2nc(COc3ccc(COc4nn(-c5ccccc5)cc4/C=C\c4csc(CC)n4)cc3OC)c(C)o2)s1 |
| 288 | O=c1[nH]c2c3ccccc3ccc2n(C2CCCCC2)c1=O |
| 71 to 72 | CN(C)CC#C[C@H]1CC[C@H](CN(C)c2ncc(Br)cn2)CC1 |
| > 250 | Cc1cc(=O)n(-c2cc3[nH]c(=O)sc3cc2F)c(=O)n1C |
| 168 to 170 | CC(CS)C(=O)N(CC(=O)O)c1ccccc1 (stereo not given) |
| 140 to 142 | COc1ccc(I)cc1C=O |
| 224 to 226 | Cc1ccc(C(=C/C=C/C(=O)O)c2ccc(C)cc2)cc1 |
| 186 to 188 | CCOC(=O)C(C)(C)c1nc2ccc(OCCCN3CCC(OC(c4ccccc4)c4ccccc4)CC3)nn2c1Cl |
| 145 to 147 | CC(C)c1ccccc1Sc1c(O)cc(-c2ccc(-c3cccnc3)cc2)oc1=O |
| 108 to 110 | O=C1CSCC(=O)C1C(=O)Nc1ccc(Cl)c(C(F)(F)F)c1 |
| 69 to 70 | COC(=O)c1cccnc1SCc1cccc(OC)c1 |
| 167 to 169 | COc1ccc(CCCCOc2cc(-c3nc4cc(C(=O)O)ccc4[nH]3)ccc2OC)cc1 |
| 156 to 158 | CNc1cc(-n2ccc3ccccc32)cc(C)n1 |
| 108 to 110 | CCOC(=O)c1c2ccc(Cl)cc2c(-c2ccccc2)n1CCCN(C)c1ccccc1 |
| 99 to 101 | Cc1ccc(O)c(C)c1[N+](=O)[O-] |
| 177 to 178 | Cc1oc(-c2ccccc2)nc1CCOc1ccc(CCC(=O)NC(N)=O)cc1 |
| 39 to 40 | COc1ccc(CN2CCC3(CCc4c3n(C)c3ccccc43)CC2)cc1 |
| 211 to 212 | COc1cc2nc(S(=O)(=O)Nc3c(Cl)cccc3Cl)nn2c(OC)n1 |
| 184 to 185 | Cc1oc(-c2ccccc2)nc1CCC(=O)c1ccc(CCCC2OC(=O)NC2=O)cc1 (stereo not given) |
| 194 to 196 | CSCC(C)(C)NC(=O)c1c(I)cccc1-c1ccc(C(F)(F)F)cc1 |
| > 250 | COc1cc2c(c(-c3ccccc3F)c1)OC(CN)C2 (stereo not given) |
| 252 to 253 | CC1(C)OC(=S)Nc2ccc(-c3cncc(Br)c3)cc21 |
| 40 to 41 | Cc1ccc(C(=O)CC(=O)C(F)F)cc1Cl |

| melting point [°C] | Structure (SMILES) |
| --- | --- |
| 100 to 105 | Cc1ccc(S(=O)(=O)OCC2Cc3cccc(-c4cc(C(F)(F)F)cc(C(F)(F)F)c4)c3O2)cc1 (stereo not given) |
| 196 | CS(=O)(=O)NCc1cccc(-c2csc(N=C(N)N)n2)n1 |
| 65 to 68 | CC(C)(C)OC(=O)C(CCCCNC(=O)c1ccc(Cl)c(S(N)(=O)=O)c1)NC1Cc2ccccc2C1 (stereo not given) |
| 177 to 178 | CC(C)Cn1c(=O)n(C)c(=O)c2c(Sc3ccc(N)cc3)c(Cc3cccc4ccccc34)sc21 |
| 223 to 226 | CCn1nc(C(F)(F)F)cc1NC(=O)C1C(C)=CC=CC1(C(N)=O)C(C)C (stereo not given) |
| 160 to 162 | Nc1cc(C(=O)Nc2ccccc2)ccc1OC(F)(F)F |
| 150 to 154 | Cc1c[nH]c(-c2ccc(OCC(O)CNC3CC3)cc2)n1 (stereo not given) |
| 204 to 208 | COc1ccc2c(c1)c(C=C1SC(=S)N(CC(=O)O)C1=O)c(C)n2C(=O)c1ccc(Cl)cc1 |
| 228 to 230 | CSc1ccc(-c2sc(NC(C)=O)nc2/C=C/c2ccc([N+](=O)[O-])cc2)cc1 |
| 270 to 272 | Cc1cc(-c2nnc3c4ccccc4c(OCc4ncn(C)n4)nn23)on1 |
| 237 to 240 | COc1cc2c(cc1Cl)C(O)(c1ccccc1Cl)C(=O)N2 (stereo not given) |
| 91 to 97 | COc1cc(C(=O)NS(=O)(=O)c2ccccc2Br)ccc1Cc1cccc2ccc(CCCCC(=O)N(C)C)cc12 |
| 197 to 199 | Cc1cc(OC/C=C/c2ccccc2)c(C)c(C)c1NC=O |
| 84 to 85 | Cc1ccc(COC(C)CN(O)C(N)=O)s1 (stereo not given) |
| 130 to 133 | NC(=S)N1CCN(c2ccc(SC(CCc3ccc(Cl)cc3)Cn3ccnc3)cc2)CC1 (stereo not given) |
| 135 to 137 | COC1NC(=O)N(C2CCCCC2)C1=O (stereo not given) |
| 160 to 164 | O=C(Nc1cccc(OCCCN2CCOCC2)c1)C12CC3CC(CC(C3)C1)C2 |
| 60 to 63 | CC(NC(=O)C=Cc1ccccc1F)c1ccc2c(c1)N(C)CCC2 (stereo not given) |
| 200 to 201 | CCC(=O)NC[C@H]1CN(c2ccc(C3CCS(=O)(=O)CC3)c(F)c2)C(=O)O1 |
| 140 to 143 | COC(=O)C1CCC2C3CCC4CC(O)CCC4(C)C3C(NC(=O)OCC(Cl)(Cl)Cl)CC12C (stereo not given) |
| 250 | N=C(N)NC(=O)c1cn(-c2nccc3ccccc23)c2ncccc12 |
| 165 to 172 | C[C@@H]1CN(CCCn2c3ccc(O)cc3c3c4c(c(-c5ccccc5Cl)cc32)C(=O)NC4=O)C[C@H](C)N1 |
| 113 | O=C(OCCN1CCN(c2cccc(C(F)(F)F)c2)CC1)c1cc(F)ccc1Nc1ccnc2cc(Cl)ccc12 |
| 83 to 85 | CCC1(CC)CN(C(C)(C)C)C(=O)C(CC)(CC)N1OCc1ccccc1 |

| melting point [°C] | Structure (SMILES) |
| --- | --- |
| 126 to 127 | CC(Cl)CCC(=O)Nc1c(C#N)cnn1-c1ccc(Cl)c(Cl)c1Cl (stereo not given) |
| 212 to 214 | CC1CC2C3CC(F)C4=CC(=O)C=CC4(C)C3C(O)CC2(C)C1C(=O)COC(=O)CCC(=O)O (stereo not given) |
| 123 to 124 | COc1ccc(-c2[nH]c(C(N)(C(F)(F)F)C(F)(F)F)nc2-c2ccc(F)cc2)cc1 |
| 142 to 145 | CS(=O)(=O)c1ccc(CC(N)C(O)C(=O)C2(C(=O)NC(CCCNC(=N)N)C(=O)O)CCCC2N)cc1 (stereo not given) |
| 89 | Cc1ccc(S(=O)(=O)NC(C)(C)C)s1 |
| 200 to 203 | CCc1c(NC(=O)c2cc(S(C)(=O)=O)ccc2OCC(C)C)c(C(N)=O)nn1CCN1CCOCC1 |
| 169 to 172 | COc1ccccc1N(CN1C(=O)CN(C)C1=O)C(C)=O |
| 200 to 201 | Nc1cc([N+](=O)[O-])c[nH]c1=O |
| 137 to 139 | Cc1ccc2c(c1)C(O)CC21CCN(CCCC(=O)c2ccc(F)cc2)C1 (stereo not given) |
| 184 to 186 | CCN(CCOC)C(=O)c1cc(-c2ccccc2)c(=O)[nH]c1-c1c(Cl)cccc1C#N |
| 177 to 178 | C[C@H](c1ccccc1)N1C(=O)N(C(=O)OC(C)(C)C)[C@@H]2C(=O)OC[C@@H]21 |
| 156 to 159 | COc1ccc(C(=O)N2CCN(c3cc4ccccc4cn3)CC2)cc1 |
| 170 to 173 | CCOC(=O)C(=O)Nc1cccc(OC)c1C(N)=O |
| 191 | CC(C)[C@H](NC(=O)[C@H](Cc1ccccc1)NC(=O)c1ccccc1)C(=O)O |
| 105 to 106 | CNC(=O)Cc1ccccc1O |
| 163 to 167 | CC1(C)CC(=NNC(=N)NN=C2CC(C)(C)NC(C)(C)C2)CC(C)(C)N1 |
| 73 to 74 | Cc1ccc(C(=O)c2ccccc2F)cc1 |
| 44 to 45 | Cc1cc(C)c2c(-c3ccc(C(C)C)cc3)coc2c1 |
| 152 to 153 | CCC(C)(Oc1ccc(CNc2ccc(Cl)cc2)cc1)C(=O)O (stereo not given) |
| 60 to 63 | O=C1CC(NCc2ccccc2)C(=O)N1Cc1ccccc1 (stereo not given) |
| 165 to 166 | CON=C(C)c1cccc(S(N)(=O)=O)c1 |
| 117 to 118 | COc1ccc(-c2ccc(C(C)=O)cc2)cc1OC1CCCC1 |
| 78 to 80 | CCC(Oc1ccc2ncccc2c1)C(=O)O (stereo not given) |
| > 250 | CC(=O)Nc1nc(C(N)=O)cs1 |

| Structure (SMILES) | melting point [°C] |
| --- | --- |
| COc1ccccc1-c1ccc2cnc(Nc3ccc4c(c3)N3CCC4CC3)nn12 | 89 to 95 |
| O=C1CN2CCC1CC2 | 58 |
| N#Cc1nn(-c2c(Cl)cc(C(F)(F)F)cc2Cl)c(-n2cccn2)c1S(=O)(=O)C(F)(F)F | 191 to 193 |
| CC1=CCN(C)C2C1N2C#N (stereo not given) | 117 |
